# Where two headings read alike, the source gives them in different places. No end group written: not given here.
# B1: rIL11: rIL11 given to irradiated mice (Van der Meeren et al. 2002) (protein, UniProt P20809 22-199, looked up)
# Interleukin-11: PGPPPGPPRVSPDPRAELDSTVLLTRSLLADTRQLAAQLRDKFPADGDHNLDSLPTLAMSAGALGALQLPGVLTRLRADLLSYLRHVQWLRRAGGSSLKTLEPELGTLQARLDRLLRRLQLLMSRLALPQPPPDPPAPPLAPPSSAWGGIRAAHAILGGLHLTLDWAVRGLLLLKTRL
# Legend:
# peritoneal macrophages = assay: Peritoneal macrophage production of NO, TNFα and IL-6 induced by MOG or LPS/IFN-γ; type: cell-based, mouse
# Procedure: For this purpose, three mice with clinical scores of 0 and three with clinical scores of 4 at 30 dpi (day post-immunization) were used for preparation of peritoneal macrophage cultures. Macrophages were collected after peritoneal lavage with 3 ml heparin (10 U/ml)-containing PBS and then seeded to 96-well microplates at a density of 1×10^5 cells/well in Dulbecco's MEM containing 10% fetal bovine serum, 2 mM L-glutamine serum, 1% HEPES and 100 U/ml penicillin and 100 μg/ml streptomycin, 37° C. in a humidified incubator with 5% CO2. 24 h later, the serum-containing medium was removed and cells were washed once with serum-free medium. To examine the differentiated response of macrophage to immune stimulators, macrophages obtained from mice with clinical scores of 0 or 4 were exposed to serial concentrations of IFN-γ/LPS or MOG35-55 peptide. […] Media were collected at 45 h or 72 h, and analyzed by ELISA for […] and IL-6 or for nitric oxide (NO) as detailed below.
# As the stable end product of nitric oxide release, nitrite levels in conditioned media were determined by injecting 50 μl media sample into a Sievers 280 NOA analyzer (Boulder, Colo., USA). Total protein (μg/well) was measured using the BCA method (Pierce, Rockford, Ill., USA) according to manufacturer's instructions with BSA as standard. BCA values were measured using a Molecular Devices Thermomax Microplate Reader (Menlo Park, Calif., USA) at OD562. Nitric oxide levels ere expressed as μM NO2—/mg protein.
# For cytokine assays, supernatants were collected 45 h after […]/LPS or MOG treatments and quantitative ELISAs using selected pairs of monoclonal antibodies (as recommended by the manufacturer Biosource) were performed to quantify the cytokines, TNF-α and IL-6. For TNF-α ELISA, 96-well ELISA plates were pre-coated with rabbit anti-mouse polyclonal to TNF-α as capture antibodies for 18 h at 2-8° C. and then blocked for 2 h at room temperature. The wells were incubated with samples or mouse TNF-α standards. Following incubation for 2 h at room temperature, the wells were washed, after which hamster anti-mouse TNF-α biotinylated secondary antibody and horseradish peroxidase conjugate were added. Tetramethylbenzidine (TMB) solution was then added, and peroxidase-catalyzed color change was stopped by acidification with 2 NH2SO4. The plates were scanned at wavelength 450 nm and the absorbance were measured. The results are expressed as the mean concentration (pg/ml) ±SEM.
# For IL-6 ELISA, rat anti-mouse monoclonal to IL-6 was used as capture antibody, and biotinylated rat anti-mouse monoclonal to IL-6 as detection antibody. The rest of procedure is identical to that of TNF-α ELISA.
# RAW 264.7 macrophages [1] = assay: NO production and iNOS mRNA in C. rodentium-stimulated macrophages; type: cell-based, mouse
# Excerpt: RAW 264.7 cells were stimulated with French-pressed lysates of C. rodentium at a multiplicity of infection of 100. […] B, RT-PCR for iNOS.
# We used bacterial lysates to more closely mimic the bacterial products to which lamina propria macrophages are likely to be exposed.
# BV2 microglial cells = test system: BV2 microglial cells
# Procedure: For suppression of inflammation profiling, each peptide analog was tested at a final concentration of 0.1, […], 1, 3, 5, 10 and 25 μM in an LPS induced BV2 microglial cell release of NO and/or TNFα. […] The modification was a biotin label on the apoE peptide (biotin-[…]-amide) which allows detection with ^125I-streptavidin (ISA, Amersham).
# In overview, BV-2 cells are plated in 96 well plates in complete media and then the media is replaced the next day with serum free media or reduced serum (1%) media. […] Each concentration of peptide (standard initial concentrations are 0.1, 0.5, 1, 3, 10 and 25 μM) is added to at least 6 wells of cells (e.g. 6 wells get 0.1 μM peptide, 6 wells get 0.5 μM peptide, etc.) and data are averaged from all 6 wells. […] (2001). Cell viability is also measured with an MTT assay (Laskowitz et al. 2001).
# [2] = test system: BV2 murine microglial cells
# Procedure: For Applicants preliminary work, the two most common PTDs, TAT and penetratin, were used.
# Cell Culture: BV-2, a well-characterized murine microglial cell line (Bochinni, 1992), is cultured in high glucose content DMEM supplemented with 1% penicillin/streptomycin, 10% fetal calf serum, 1% nonessential amino acids, and 1% sodium pyruvate. Cells are grown to confluency; trypsinized; spun down; resuspended in serum-free OptiMEM containing 1% N2 supplement, 1% penicillin/streptomycin, 1% nonessential amino acids, and 1% sodium pyruvate; and plated at a concentration of 20,000 cells/well to remove any nonadherent cells and serum.
# Supernatant is collected 24 and/or 48 h after LPS stimulation and assayed for nitrite.
# Quantification of Nitric Oxide (NO): Accumulation of nitrite (stable end product of NO production) in the medium is measured by colometric Griess reagent system (Promega); the absorbance is determined at 540 nm.
# Cell Viability Assay: Cell viability is measured using a nonradioactive cell viability assay (cell titer 96 AQ, Promega). The assay measures the bioreduction of MTS (3-(4,5-dimethylthiazole-2-)-5-(3-carboxymethoxyphenyl)-2-(4-sulfophenyl)-2H-tetrazolium by viable cells into formazan. The absorbance of the calorimetric assay is measured at λ 490 nm. Viability is assessed and used to normalize the nitrite data.
# [3] = test system: mice with traumatic brain injury; assay: Closed head injury model of traumatic brain injury (rotorod, Morris Water Maze)
# Procedure: C57Bl/6J male mice (The Jackson Laboratory, ME), 12-16 weeks of age and weighing 24-32 g, are used for all experiments. Anesthesia is first induced with isoflurane in 30% O2/balance N2. The trachea is intubated and the lungs mechanically ventilated with 1.6% isoflurane in 30% O2/balance N2. Temperature is monitored with a rectal probe and maintained at 36.5° C. with a heat lamp. The right internal jugular vein is cannulated with silicone catheter. […] Intubated animals are then placed prone on a molded acrylic cast (FIG. 6A). […] The scalp is incised and the skull exposed. A concave 3 mm metallic disc is secured to the skull surface (with the concave surface in juxtaposition to the skull) by an adhesive. […] The disc is placed directly midline just caudal to bregma (FIG. 6B). […] The mice are positioned in a stereotactic frame. Although the stereotactactic frame helps to stabilize the animal and exactly calibrate the vertical displacement on impact (3 mm), ear bars are not used due to a much higher rate of skull fracture (or brainstem injury if the head rotates around the axis of the ear bars during impact). The piston is discharged at 6.8±0.2 m/s so as to impact the skull in the acrylic mold to move a maximum of approximately 3 mm (FIG. 6C). Inspired isoflurane is decreased to 0.7% immediately after impact. The scalp was infiltrated with lidocaine and closed with suture. Ophthalmic ointment was applied to the eyes for protection. The incidence of skull fracture is low (approximately 10%), as the metal disk helps to diffuse the impact, and the absence of ear bar fixation allows for displacement of the entire head. Mice were excluded if a depressed skull fracture was observed (incidence of approximately 10%). The animals are allowed to recover spontaneous ventilation then extubated. […] In these mice, arterial blood pressure, blood gas and glucose measurement at baseline, immediately after injury, and 15 minutes after injury are monitored during the recovery period.
# Briefly, baseline performance on rotorod is established before the mice are intubated, the skin over the scalp reflected and a controlled cortical impact from a pneumatic impactor given on the midline. The skin is closed with surgical clips and the animals are constantly monitored until awake from anesthesia and then hourly for the next 4 hours. […] Performance on rotorod is tested at 24 hours post impaction and then every day for 5 days and data is presented as described. Groups of 12 mice are used for each compound at 0.5×MTD. […] Novel peptides and non-peptide analogs are also given by tail vein injection.
# Daily Rotarod (RR) testing was used to assess short term motor and cerebellar deficit following head injury (Hamm et al., 1994). Mice were held by their tails and placed on the RR facing the wall by using gentle swinging motion while running in a constant speed mode.
# RAW 264.7 macrophages [4] = test system: RAW 264.7 macrophages
# [5] = test system: C57BL/6J mice with MOG-induced EAE; assay: MOG-induced experimental autoimmune encephalomyelitis (EAE); conditions: preliminary data
# Procedure: EAE was induced in mice following the method of Feinstein et al. (Feinstein, Galea, et al. 2002) 1) two s.c. injections, one on each flank of the hind legs with 300 μg MOG35-55 peptide in 0.1 ml PBS emulsified in an equal volume of CFA containing 5 mg/ml of Mycobacterium tuberculosis H37RA (Difco, St. Louis, Mo.) were given on Day 0.2) Pertussis toxin (200 ng per mouse in 0.1 ml PBS) was given i.p. immediately and 48 h after first MOG injection. 3) a booster immunization with an identical emulsion, route of administration and location was given on Day 7.
# Following the encephalitogenic challenge, mice were monitored daily and neurological impairment was evaluated by clinical score (C.S.) as follows: 0, no clinical signs of EAE; 1, limp tail; 2, flaccid tail and abnormal gait (ataxia and/or paresis of hind limbs); 3, severe hind limb paresis; 4, complete paralysis with hind body; and 5, moribund or death.
# Mice were anesthetized, bled, and perfused with 25 ml PBS and 25 ml 4% paraformaldehyde in buffered PBS. Brains and spinal cords were dissected out from 3 mice with a clinical score of 0 and another 3 mice with a clinical score of 4 on day 30 post-immunization. Tissues were post-fixed in 4% paraformaldehyde for another 24 h and then stored in 1×PBS with 0.1% sodium azide. Fixed tissues were embedded in paraffin and 5 μm thick sections were cut from brain, the brain stem and three different levels of spinal cord (cervical, thoracic and lumbar). Sections were stained with hematoxylin/eosin for evidence of inflammation and Luxol fast blue (for demyelination). The severity of inflammation was evaluated using the following criteria: 0, no inflammation; 1, cellular infiltrates only in the perivascular areas and meninges; 2, mild cellular infiltrates only in parenchyma (1-10/section); 3, moderate cellular infiltrates in parenchyma (11-100/section); 4, marked cellular infiltrates in parenchyma (>100 section).
# In total, 10 doses of peptides were given.
# mice = assay: Maximum tolerated dose, tail vein injection; conditions: mouse, in vivo
# Procedure: Candidate compounds are then be screened in our closed head injury model of traumatic brain injury by intravenous dosing at 30 minutes post injury. Novel compounds are initially tested at one half their maximum tolerated dose (0.5×MTD). The maximum tolerated dose (MTD) is the dose of peptide given in a tail vein injection that results in no death of mice. Death is defined as a complete lack of breathing and complete unresponsiveness to external stimuli such as tail pinch and/or toe pinch for a period of 10 or more minutes. Animals are given an initial dose of 1 mg/kg of peptide analog or non-peptide mimetic and observed continuously for 15 minutes and then at 15 minute intervals for 2 hours and then at 1 hour intervals for 4 hours more. Animals are also observed at 24 hours post injection.
# The maximum tolerated dose is the maximum dose at which no animals die at any of these observation times. As an example of this procedure, the MTD is determined empirically by initially dosing groups of 3 mice at 1 mg/kg. If this dose is tolerated, then another group of 3 mice is dosed at 3 mg/kg. If this dose is tolerated, then another group of 3 mice is dosed at 9 mg/kg, etc. If, for example, 9 mg/kg is not tolerated because 1 or more animal died, then doses in-between 3 mg/kg and 9 mg/kg are investigated until the MTD is found. Once the MTD is empirically determined, it is confirmed in another group of 7 mice for a total of 10 mice being tested at the MTD and all of which must not die to confirm that this is the MTD.
# in vivo = conditions: male, C57B1/6, mouse, 0.4 mg/kg
# [6] = test system: mice receiving total body irradiation; conditions: cited from earlier work
# [7] = target: cellular receptor bound by the apoE 133-149 peptide (on cells, 250,000 cells per well); assay: competition with biotinylated apoE 133-149 for binding to whole cells (250,000 cells/well, 4 C), 125I-streptavidin detection
molecule,measurement,setting,value
Ac-RQIKIWFQNRRMKWKKLRVRLASHLRKLRKRLL-NH2 (N-terminus and C-terminus assumed) [COG4502],Inhibition of cytokine production induced by MOG or LPS/IFN-γ,peritoneal macrophages,significantly more powerful in inhibiting cytokine production
same,"Production of NO, TNFα and IL-6 at 5 μM","peritoneal macrophages; 5 μM, MOG or LPS/IFN-γ","inhibited the production of NO, TNFα and IL-6 completely"
same,TNFa and IL6 release from peritoneal macrophages,"peritoneal macrophages; gamma interferon and LPS, 24 hours",dose dependent inhibition of TNFa release and a dose dependent inhibition of IL6 release
same,NO production (nitrite levels) in macrophage supernatants,"RAW 264.7 macrophages [1]; C. rodentium lysates, COG1410 2 μM, COG4502 0.1-5 μM",inhibition of NO production
same,iNOS mRNA expression,RAW 264.7 macrophages [1]; RT-PCR,"significant, concentration-dependent inhibition of iNOS mRNA expression"
same,Suppression of NO and/or TNFα release from LPS treated BV2 cells,BV2 microglial cells,much better than the COG133 parent
same,IC50,BV2 microglial cells; 40 h,~10 nM
same,IC50,[2],700 nM
same,Increase in potency relative to COG133,[2],40 fold
same,Suppression of LPS-stimulated nitrite secretion,[2],significantly more potent than COG133
same,Suppression of NO production at 25 μM,[2]; 25 μM,100%
same,Increase of efficacy of COG133 when conjugated to penetratin,[2]; FIG. 18 vs FIG. 16,about 100 fold
same,IC50,"[2]; read-out: Dose for fifty percent suppression of LPS-stimulated nitrite secretion, FIG. 18",~30 nM
same,IC50,"[2]; read-out: IC50 TNFα, in vitro",1100 nM
same,"Rotorod performance, conjugates given at varying times following TBI",[3]; FIG. 20: 90 minutes following TBI,can increase the therapeutic window of COG133
same,In vivo Therapeutic window time expanded?,"[3]; mouse, in vivo",Yes; tested at 4 X
same,Concentration at which cell toxicity was noted,RAW 264.7 macrophages [4],10 µM
same,Concentration range where toxicity did not occur,RAW 264.7 macrophages [4],0.1 to 5 µM
CC(=O)N[C@@H](CC(C)C)C(=O)N[C@@H](CCCNC(=N)N)C(=O)N[C@H](C(=O)N[C@@H](CCCNC(=N)N)C(=O)N[C@@H](CC(C)C)C(=O)N[C@@H](C)C(=O)N[C@@H](CO)C(=O)N[C@@H](Cc1c[nH]cn1)C(=O)N[C@@H](CC(C)C)C(=O)N[C@@H](CCCNC(=N)N)C(=O)N[C@@H](CCCCN)C(=O)N[C@@H](CC(C)C)C(=O)N[C@@H](CCCNC(=N)N)C(=O)N[C@@H](CCCCN)C(=O)N[C@@H](CCCNC(=N)N)C(=O)N[C@@H](CC(C)C)C(=O)N[C@@H](CC(C)C)C(N)=O)C(C)C [COG133],Tolerability in mice with EAE,[5],well tolerated
same,EC50,"BV2 microglial cells; read-out: EC50 (50% reduction of NO or TNFα release), LPS induced BV2 cells",3500 nM
same,IC50,"BV2 microglial cells; read-out: IC50, inhibition of nitric oxide release, BV2 cells, LPS for 40 hours, approximate",~2000 nM
same,Therapeutic Index (ratio of the MTD to the MED),mice,3.5
same,half-life,in vivo,8 min
same,IC50,"[2]; read-out: IC50 NO, 50% suppression of NO production, normalized on cell viability",25000 nM
"NCCCNCCSP(=O)(O)O [amifostene, reference compound]",Dose reduction factor,"[6]; 30 days post-irradiation, given immediately before irradiation (Hall 2000)",2.7
B1,Survival rate at 30 days post-TBI,"[6]; 8 Gy, 2 hour delay, every day for 5 days (Van der Meeren et al. 2002)",74%
"LRVRLASHLRKLRKRLL (not fully specified) [apoE 133-149 peptide (COG133), unlabeled]",IC50,[7],4000 nM

# — US20090042783A1, “APO E ANALOGS AND METHODS FOR THEIR USE” (priority 2004, published 2009)
